Results reported in ChEMBL document CHEMBL3044789, “Comparing weed and crop seedling response to pre-emergence pendimethalin application in Corchorus olitorius and Abelmoschus esculentus” (Crop Prot, 2006).

Key:
Synedrella nodiflora [1] = test: Herbicidal activity against Synedrella nodiflora in Abelmoschus esculentus plots assessed as weed cover at 0.99 kg a.i/ha after 4 weeks (reference value: 22.6 +/- 0.49 %); type: functional
Calopogonium mucunoides [2] = test: Herbicidal activity against Calopogonium mucunoides in Abelmoschus esculentus plots assessed as weed cover at 0.66 kg a.i/ha after 4 weeks (reference value: 22.6 +/- 0.49 %); type: functional
Calopogonium mucunoides [3] = test: Herbicidal activity against Calopogonium mucunoides in Abelmoschus esculentus plots assessed as weed cover at 0.99 kg a.i/ha after 2 weeks (reference value: 63.5 +/- 0.29 %); type: functional
Calopogonium mucunoides [4] = test: Herbicidal activity against Calopogonium mucunoides in Abelmoschus esculentus plots assessed as weed cover at 0.66 kg a.i/ha after 2 weeks (reference value: 63.5 +/- 0.29 %); type: functional
Euphorbia heterophylla [5] = test: Herbicidal activity against Euphorbia heterophylla in Abelmoschus esculentus plots assessed as major weed growth at 0.66 kg a.i/ha after 2 weeks; type: functional
Synedrella nodiflora [6] = test: Herbicidal activity against Synedrella nodiflora in Corchorus olitorius plots assessed as minor weed growth at 1.32 kg a.i/ha after 2 weeks; type: functional
Synedrella nodiflora [7] = test: Herbicidal activity against Synedrella nodiflora in Abelmoschus esculentus plots assessed as weed cover at 1.32 kg a.i/ha after 7 weeks (reference value: 14.7 +/- 0.46 %); type: functional
Synedrella nodiflora [8] = test: Herbicidal activity against Synedrella nodiflora in Abelmoschus esculentus plots assessed as weed cover at 0.99 kg a.i/ha after 7 weeks (reference value: 14.7 +/- 0.46 %); type: functional
Calopogonium mucunoides [9] = test: Herbicidal activity against Calopogonium mucunoides in Abelmoschus esculentus plots assessed as weed cover at 0.66 kg a.i/ha after 7 weeks (reference value: 14.7 +/- 0.46 %); type: functional
Synedrella nodiflora [10] = test: Herbicidal activity against Synedrella nodiflora in Abelmoschus esculentus plots assessed as weed cover at 0.33 kg a.i/ha after 2 weeks (reference value: 63.5 +/- 0.29 %); type: functional
[11] = test system: Rottboellia cochinchinensis; test: Herbicidal activity against Rottboellia cochinchinensis in Abelmoschus esculentus plots assessed as weed cover at 0.33 kg a.i/ha after 2 weeks (reference value: 63.5 +/- 0.29 %); type: functional
Talinum fruticosum = test: Herbicidal activity against Talinum fruticosum in Corchorus olitorius plots assessed as weed cover at 0.99 kg a.i/ha after 7 weeks (reference value: 1.7 +/- 0.56 %); type: functional
Cyperus rotundus [12] = test: Herbicidal activity against Cyperus rotundus in Corchorus olitorius plots assessed as weed cover at 0.66 kg a.i/ha after 7 weeks (reference value: 1.7 +/- 0.56 %); type: functional
Abelmoschus esculentus [13] = test: Phytotoxicity in Abelmoschus esculentus assessed as seedling emergence at 0.33 kg a.i/ha treated to soil after 7 weeks (reference value: 95 +/- 0.05 %); type: organism-based; conditions: in vivo, other, 1176 h
Corchorus olitorius [14] = test: Phytotoxicity in Corchorus olitorius assessed as root length at 0.66 kg a.i/ha treated to soil after 7 weeks (reference value: 16.9 +/- 0.09 mm); type: organism-based; conditions: in vivo, other, 1176 h
Euphorbia heterophylla [15] = test: Herbicidal activity against Euphorbia heterophylla in Corchorus olitorius plots assessed as weed cover at 0.66 kg a.i/ha after 7 weeks (reference value: 1.7 +/- 0.56 %); type: functional
Synedrella nodiflora [16] = test: Herbicidal activity against Synedrella nodiflora in Corchorus olitorius plots assessed as weed cover at 0.66 kg a.i/ha after 7 weeks (reference value: 1.7 +/- 0.56 %); type: functional
[17] = test system: Rottboellia cochinchinensis; test: Herbicidal activity against Rottboellia cochinchinensis in Corchorus olitorius plots assessed as weed cover at 0.33 kg a.i/ha after 7 weeks (reference value: 1.7 +/- 0.56 %); type: functional
Abelmoschus esculentus [18] = test: Phytotoxicity in Abelmoschus esculentus assessed as root length at 1.32 kg a.i/ha applied as solution after 7 weeks (reference value: 23 +/- 0.34 mm); type: organism-based; conditions: in vivo, other, 1176 h
Abelmoschus esculentus [19] = test: Phytotoxicity in Abelmoschus esculentus assessed as root length at 0.33 kg a.i/ha applied as solution after 7 weeks (reference value: 23 +/- 0.34 mm); type: organism-based; conditions: in vivo, other, 1176 h
Synedrella nodiflora [20] = test: Herbicidal activity against Synedrella nodiflora in Corchorus olitorius plots assessed as weed cover at 0.99 kg a.i/ha after 2 weeks (reference value: 81.7 +/- 0.43 %); type: functional
Chromolaena odorata [21] = test: Herbicidal activity against Chromolaena odorata in Corchorus olitorius plots assessed as weed cover at 0.99 kg a.i/ha after 2 weeks (reference value: 81.7 +/- 0.43 %); type: functional
Commelina diffusa = test: Herbicidal activity against Commelina diffusa in Corchorus olitorius plots assessed as weed cover at 0.66 kg a.i/ha after 2 weeks (reference value: 81.7 +/- 0.43 %); type: functional
Ageratum conyzoides [22] = test: Herbicidal activity against Ageratum conyzoides in Corchorus olitorius plots assessed as weed cover at 0.33 kg a.i/ha after 2 weeks (reference value: 81.7 +/- 0.43 %); type: functional
Synedrella nodiflora [23] = test: Herbicidal activity against Synedrella nodiflora in Corchorus olitorius plots assessed as weed recovery at 0.33 kg a.i/ha after 2 weeks (reference value: 78.3 +/- 0.74 %); type: functional
Calopogonium mucunoides [24] = test: Herbicidal activity against Calopogonium mucunoides in Corchorus olitorius plots assessed as weed cover at 1.32 kg a.i/ha after 7 weeks (reference value: 1.7 +/- 0.56 %); type: functional
Ageratum conyzoides [25] = test: Herbicidal activity against Ageratum conyzoides in Corchorus olitorius plots assessed as weed cover at 1.32 kg a.i/ha after 7 weeks (reference value: 1.7 +/- 0.56 %); type: functional
Abelmoschus esculentus [26] = test: Phytotoxicity in Abelmoschus esculentus assessed as seed germination at 0.33 kg a.i/ha applied as solution after 7 weeks (reference value: 85.7 +/- 0.36 %); type: organism-based; conditions: in vivo, other, 1176 h
Cyperus rotundus [27] = test: Herbicidal activity against Cyperus rotundus in Corchorus olitorius plots assessed as weed cover at 0.66 kg a.i/ha after 4 weeks (reference value: 20.1+/- 0.57 %); type: functional
Corchorus olitorius [28] = test: Phytotoxicity in Corchorus olitorius assessed as root length at 0.33 kg a.i/ha treated to soil after 7 weeks (reference value: 16.9 +/- 0.09 mm); type: organism-based; conditions: in vivo, other, 1176 h
Synedrella nodiflora [29] = test: Herbicidal activity against Synedrella nodiflora in Abelmoschus esculentus plots assessed as weed recovery at 0.99 kg a.i/ha after 2 weeks (reference value: 60.1 +/- 0.46 %); type: functional
Calopogonium mucunoides [30] = test: Herbicidal activity against Calopogonium mucunoides in Abelmoschus esculentus plots assessed as weed recovery at 0.66 kg a.i/ha after 2 weeks (reference value: 60.1 +/- 0.46 %); type: functional
[31] = test system: Rottboellia cochinchinensis; test: Herbicidal activity against Rottboellia cochinchinensis in Corchorus olitorius plots assessed as weed cover at 0.33 kg a.i/ha after 4 weeks (reference value: 20.1+/- 0.57 %); type: functional
Chromolaena odorata [32] = test: Herbicidal activity against Chromolaena odorata in Corchorus olitorius plots assessed as weed cover at 0.33 kg a.i/ha after 4 weeks (reference value: 20.1+/- 0.57 %); type: functional
Synedrella nodiflora [33] = test: Herbicidal activity against Synedrella nodiflora in Corchorus olitorius plots assessed as weed cover at 1.32 kg a.i/ha after 2 weeks (reference value: 81.7 +/- 0.43 %); type: functional

Question: What does the source list for `CCC(CC)Nc1c([N+](=O)[O-])cc(C)c(C)c1[N+](=O)[O-]` [PENDIMETHALIN]?
Answer: Activity (Synedrella nodiflora [1]): 39.2%; Activity (Calopogonium mucunoides [2]): 47.9%; Activity (Calopogonium mucunoides [3]): 47.9%; Activity (Calopogonium mucunoides [4]): 50.8%; Activity (Euphorbia heterophylla [5]): 31 /m2; Activity (Synedrella nodiflora [6]): 1 /m2; Activity (Synedrella nodiflora [7]): 82.4%; Activity (Synedrella nodiflora [8]): 83.9%; Activity (Calopogonium mucunoides [9]): 90%; Activity (Synedrella nodiflora [10]): 56.8%; Activity [11]: 56.8%; Activity (Talinum fruticosum): 95%; Activity (Cyperus rotundus [12]): 100%; Activity (Abelmoschus esculentus [13]): 85%; Activity (Corchorus olitorius [14]): 13.7 mm; Activity (Euphorbia heterophylla [15]): 100%; Activity (Synedrella nodiflora [16]): 100%; Activity [17]: 100%; Activity (Abelmoschus esculentus [18]): 11.5 mm; Activity (Abelmoschus esculentus [19]): 11.7 mm; Activity (Synedrella nodiflora [20]): 51.7%; Activity (Chromolaena odorata [21]): 51.7%; Activity (Commelina diffusa): 51.7%; Activity (Ageratum conyzoides [22]): 63.3%; Activity (Synedrella nodiflora [23]): 31.7%; Activity (Calopogonium mucunoides [24]): 95%; Activity (Ageratum conyzoides [25]): 95%; Activity (Abelmoschus esculentus [26]): 52.7%; Activity (Cyperus rotundus [27]): 63.3%; Activity (Corchorus olitorius [28]): 14.2 mm; Activity (Synedrella nodiflora [29]): 36.2%; Activity (Calopogonium mucunoides [30]): 47.9%; Activity [31]: 73.3%; Activity (Chromolaena odorata [32]): 73.3%; Activity (Synedrella nodiflora [33]): 41.7%
